Measured values taken from article PMC4200786, “Synthesis and Characterization of New Bivalent Agents as Melatonin- and Histamine H3-Ligands” (International Journal of Molecular Sciences, 2014).

What was measured:
human MT1 receptor [1] = target: T1, human MT1 receptor (Homo sapiens, UniProt P48039); test: Human MT1 melatonin receptor binding assay, 2-[125I]iodomelatonin competition; conditions: cloned human MT1 in NIH3T3 cell membranes; 2-[125I]iodomelatonin 100 pM; N.A. = Not active up to 100 μM
T1 construct: expressed in transfected cells; host or cells: NIH3T3 fibroblast cells
Procedure: (§1) Binding affinities were determined using 2-[^125I]iodomelatonin as the labeled ligand in competition experiments with cloned human MT1 and MT2 receptors expressed in NIH3T3 […] fibroblast cells. The characterization of NIH3T3 MT1 and MT2 cells was already described in detail. Membranes were incubated for 90 min at 37 °C in binding buffer (50 mM Tris/HCl, pH 7.4). The final membrane concentration was 5–10 μg of protein per tube. The membrane protein level was determined in accordance with a previously reported method. 2-[^125I]Iodomelatonin (100 pM) and different concentrations of the tested compounds were incubated with the receptor preparation for 90 min at 37 °C. […] The pKi values were calculated from the IC50 values according to the Cheng–Prusoff equation [51]. The pKi values are the mean of at least three independent determinations performed in duplicate.

[2] = target: T2, human histamine H3 receptor (Homo sapiens, UniProt Q9Y5N1); test: Human histamine H3 receptor binding assay, [3H](R)-α-methylhistamine displacement; conditions: SK-N-MC cell homogenates expressing hH3R; 0.5 nM [3H](R)-α-methylhistamine; mean ± SEM of three experiments
T2 construct: expressed in transfected cells; host or cells: SK-N-MC cells
Procedure: Homogenates of SK–N–MC cells expressing human histamine H3 receptors (hH3Rs) were used to determine affinity values of the new compounds in radioligand displacement studies according to Lovenberg et al.’s method. SK–N–MC cells in confluent culture plates were harvested using trypsin digestion and then centrifuged for 5 min at 1100 rpm. Pellets, either fresh or stored at −80 °C until the moment of use, were mechanically homogenized with Potter-Elvhejem in 20 mM Tris-HCl/0.5 mM EDTA. Supernatants from a 2000 rpm spin (10 min) were collected and re-centrifuged at 10,000 rpm for 30 min. Pellets were re-homogenized in 50 mM Tris-HCl/5 mM EDTA (pH 7.4). Membranes were incubated for 60 min at room temperature with 0.5 nM [^3H](R)-α-methylhistamine in 50 mM Tris-HCl/5 mM EDTA (pH 7.4) with or without competing ligands. Each concentration was tested in triplicate. Incubation was terminated by rapid filtration over Millipore (Darmstadt, Germany) AAWPO2500 filters followed by two washes with ice-cold buffer (50 mM Tris-HCl/5 mM EDTA). Filters retained radioactivity was determined by liquid scintillation counting (Ultima Gold XR Perkin Elmer (Waltham, MA, USA) scintillation liquid, Tri-Carb 2810 TR Perkin Elmer (Waltham, MA, USA) Liquid Scintillation Analyzer). […] Data are expressed as mean ± SEM of three independent experiments.

human MT2 receptor [3] = target: T3, human MT2 receptor (Homo sapiens, UniProt P49286); test: Human MT2 melatonin receptor binding assay, 2-[125I]iodomelatonin competition; conditions: cloned human MT2 in NIH3T3 cell membranes; 2-[125I]iodomelatonin 100 pM; N.A. = Not active up to 100 μM
T3 construct: expressed in transfected cells; host or cells: NIH3T3 fibroblast cells
T3 sequence (P49286 1-362): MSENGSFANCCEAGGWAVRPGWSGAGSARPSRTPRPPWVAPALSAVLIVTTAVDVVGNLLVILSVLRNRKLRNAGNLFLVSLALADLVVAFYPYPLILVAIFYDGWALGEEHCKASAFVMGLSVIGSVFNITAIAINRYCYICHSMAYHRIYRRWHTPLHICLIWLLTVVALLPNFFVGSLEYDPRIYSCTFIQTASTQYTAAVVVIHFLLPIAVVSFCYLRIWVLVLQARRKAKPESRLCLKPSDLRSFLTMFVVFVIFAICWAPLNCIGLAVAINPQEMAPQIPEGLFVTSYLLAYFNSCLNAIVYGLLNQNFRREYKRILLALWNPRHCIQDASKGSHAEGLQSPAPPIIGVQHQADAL
Procedure: as §1

human MT2 receptor [4] = target: T3, human MT2 receptor; test: [35S]GTPγS binding assay, human MT2 receptor; assay type: biochemical
Procedure: (§2) To determine the functional activity of compound 14d at MT1 and MT2 receptor subtypes, [^35S]GTPγS binding assays in NIH3T3 cells expressing human-cloned MT1 or MT2 receptors were performed. The amount of bound [^35S]GTPγS is proportional to the level of the analog-induced G protein activation and is related to the intrinsic activity of the compound under study. The detailed description and validation of this method were reported elsewhere. Membranes (15–25 μg of protein, final incubation volume 100 μL) were incubated at 30 °C for 30 min in the presence and absence 14d, in assay buffer consisting of [^35S]GTPγS (0.3–0.5 nM), GDP (50 μM), NaCl (100 mM), and MgCl2 (3 mM). Nonspecific binding was defined using GTPγS (10 μM). […] Basal stimulation is the amount of [^35S]GTPγS specifically bound in the absence of compounds and was taken as 100%. […] All of the measurements were performed in triplicate.

human MT1 receptor [5] = target: T1, human MT1 receptor; test: [35S]GTPγS binding assay, human MT1 receptor; assay type: biochemical
Procedure: as §2

T2 sequence (Q9Y5N1 whole entry): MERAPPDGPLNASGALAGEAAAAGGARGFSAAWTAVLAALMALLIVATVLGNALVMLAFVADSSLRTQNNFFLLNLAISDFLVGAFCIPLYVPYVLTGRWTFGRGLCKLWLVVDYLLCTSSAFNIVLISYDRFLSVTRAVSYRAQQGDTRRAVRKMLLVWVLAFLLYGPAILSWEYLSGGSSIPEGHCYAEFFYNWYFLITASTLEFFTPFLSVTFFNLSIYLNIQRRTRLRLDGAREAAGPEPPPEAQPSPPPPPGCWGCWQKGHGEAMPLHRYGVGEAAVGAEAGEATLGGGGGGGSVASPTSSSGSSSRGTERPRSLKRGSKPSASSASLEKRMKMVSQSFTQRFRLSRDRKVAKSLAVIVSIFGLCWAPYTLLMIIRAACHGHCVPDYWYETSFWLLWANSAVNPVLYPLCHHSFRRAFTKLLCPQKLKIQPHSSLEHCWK
T1 sequence (P48039 whole entry): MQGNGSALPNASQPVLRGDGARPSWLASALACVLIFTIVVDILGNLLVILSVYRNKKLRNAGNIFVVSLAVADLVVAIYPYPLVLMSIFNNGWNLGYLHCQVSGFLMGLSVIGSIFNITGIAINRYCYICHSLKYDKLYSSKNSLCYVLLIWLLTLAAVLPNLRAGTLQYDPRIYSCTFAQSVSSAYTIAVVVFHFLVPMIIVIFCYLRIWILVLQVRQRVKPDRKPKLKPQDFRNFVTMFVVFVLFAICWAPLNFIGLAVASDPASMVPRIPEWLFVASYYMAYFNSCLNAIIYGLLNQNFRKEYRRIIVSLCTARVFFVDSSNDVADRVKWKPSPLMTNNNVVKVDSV

## N-[2-({3-[5-(1H-Imidazol-4-yl)pentyloxy]phenyl}methylamino)ethyl]acetamide [Compound 14c]
Human MT1 receptor [1]
  hMT1 pKi: 6.09 ± 0.12
[2]
  hH3 pKi: 6.28 ± 0.03
Human MT2 receptor [3]
  hMT2 pKi: 6.28 ± 0.10

## N-[2-({3-[3-(1H-Imidazol-4-yl)propoxy]phenyl}methylamino)ethyl]acetamide [Compound 14a]
[2]
  hH3 pKi: 5.91 ± 0.01

## N-[2-({3-[6-(1H-Imidazol-4-yl)hexyloxy]phenyl}methylamino)ethyl]acetamide [Compound 14d]
Human MT1 receptor [1]
  hMT1 pKi: 6.79 ± 0.01
[2]
  hH3 pKi: 6.22 ± 0.09
Human MT2 receptor [4]; GTPγS assay
  functional behaviour at MT2 receptor in the GTPγS assay: antagonist
Human MT2 receptor [4]; [35S]GTPγS binding, NIH3T3 cells expressing human MT2, relative to melatonin
  hMT2 IAR (relative intrinsic activity): −0.35 ± 0.19
Human MT1 receptor [5]; GTPγS assay
  functional behaviour at MT1 receptor in the GTPγS assay: antagonist
Human MT1 receptor [5]; [35S]GTPγS binding, NIH3T3 cells expressing human MT1, relative to melatonin
  hMT1 IAR (relative intrinsic activity): −0.26 ± 0.09
Human MT2 receptor [3]
  hMT2 pKi: 6.76 ± 0.06
